The results in this text go back to patent US10820591B2, “Substituted sulfonyl amides for controlling animal pests” (Bayer Aktiengesellschaft, priority 2016, dated 2020).

The test system of the assay is Meloidogyne incognita. Put plainly: Meloidogyne incognita test (sand, lettuce, gall formation). In kind it is in vivo. Particulars: Meloidogyne incognita, 336 h, after 14 days, read-out: nematicidal efficacy (formation of galls). As to the method:
Meloidogyne incognita Test [table] To produce a suitable active compound preparation, 1 part by weight of active compound is mixed with the stated amount of solvent and the concentrate is diluted to the desired concentration with water. Vessels are filled with sand, active compound solution, an egg/larvae suspension of the southern root-knot nematode (Meloidogyne incognita) and lettuce seeds. The lettuce seeds germinate and the plants develop. The galls develop on the roots. After 14 days, the nematicidal efficacy in % is determined by the formation of galls. 100% means that no galls were found; 0% means that the number of galls on the treated plants corresponds to the untreated control.

`O=C(NS(=O)(=O)c1ccccc1Cl)c1cn(Cc2c(F)cccc2F)cn1` [I-003]: the pest or weed control at 20 ppm worked out at 90%. As to `CC(C)S(=O)(=O)NC(=O)c1ncn(CCC(F)(F)F)c1Br` [I-009], the pest or weed control at 20 ppm was 90%. On the same count and under the same terms, as for `O=C(NS(=O)(=O)c1ccc(Cl)cc1Cl)c1ncn(CC(F)(F)F)c1Cl` [I-013], the figure is 70%. Same read-out and setting: as for `COc1cc(C)c(S(=O)(=O)NC(=O)c2ncn(CCC(F)(F)F)c2Cl)c(C)c1` [I-036], the figure is 100%; as for `Cc1nc(C(=O)NS(=O)(=O)c2c(Cl)cccc2SC(C)C)cn1-c1cc(F)cc(Cl)c1` [I-384], 100%. Take `Cn1nc(C(=O)NS(=O)(=O)c2cc(Cl)ccc2Cl)cc1-c1cccc(C(F)(F)F)c1` [I-135]: the pest or weed control at 20 ppm was found to be 90%.

`Cc1nc(C(=O)NS(=O)(=O)c2c(Cl)cccc2Cl)cn1-c1cccc(C(F)(F)F)c1` [I-274]: the pest or weed control at 20 ppm turned out to be 90%. For `O=C(NS(=O)(=O)c1ccccc1Cl)c1cn(-c2cccc(Cl)c2)cn1` [I-174], the pest or weed control at 20 ppm came out at 100%.

With `O=C(NS(=O)(=O)c1cc(F)ccc1F)c1cn(-c2cc(Cl)cc(Cl)c2)cn1` [I-234], the pest or weed control at 20 ppm stood at 70%. For `O=C(NS(=O)(=O)c1cc(F)ccc1F)c1cn(-c2cc(Cl)ccc2Cl)cn1` [I-233], the pest or weed control at 20 ppm amounted to 100%. As for `COc1ccc(Cl)c(S(=O)(=O)NC(=O)c2ncn(C3CC3C(F)(F)F)c2Cl)c1` (stereo not drawn) [I-103], the pest or weed control at 20 ppm was found to be 100%. Turning to `Cc1nc(C(=O)NS(=O)(=O)c2c(F)cccc2NC2CC2)cn1-c1cc(F)cc(Cl)c1` [I-380], the pest or weed control at 20 ppm came out at 100%. `COc1ccc(Br)c(S(=O)(=O)NC(=O)c2cn(-c3c(F)cccc3F)cn2)c1` [I-361]: the pest or weed control at 20 ppm is 90%. For `O=C(NS(=O)(=O)c1ccccc1)c1cn(-c2cc(F)cc(Cl)c2)cn1` [I-236], the pest or weed control at 20 ppm is 90%. Take `COc1cc(OC)nc(Oc2ccc(S(=O)(=O)NC(=O)c3ncn(CCC(F)(F)F)c3Cl)cc2)n1` [I-096]: the pest or weed control at 20 ppm was found to be 90%.

Consider `COc1ccc(Cl)c(S(=O)(=O)NC(=O)c2cn(-c3cc(Cl)cc(Cl)c3)c(Cl)n2)c1` [I-443], for which the pest or weed control at 20 ppm came out at 100%.

Consider `Cc1ccc(C)c(S(=O)(=O)NC(=O)c2cn(-c3c(F)cccc3F)cn2)c1` [I-358], for which the pest or weed control at 20 ppm amounted to 100%. As to `Cn1nc(C(=O)NS(=O)(=O)c2c(Cl)cccc2Cl)cc1-c1c(F)cccc1F` [I-145], the pest or weed control at 4 ppm stood at 90% and the pest or weed control at 20 ppm amounted to 70%.

As to `CCOc1ccc(Cl)c(S(=O)(=O)NC(=O)c2cn(-c3cc(Cl)cc(C(F)(F)F)c3)c(C)n2)c1` [I-324], the pest or weed control at 20 ppm was 100%. `COc1ccc(Cl)c(S(=O)(=O)NC(=O)c2ncn(-c3ccccc3Cl)c2C2CC2)c1` [I-489]: the pest or weed control at 20 ppm amounted to 90%. In the case of `O=C(NS(=O)(=O)c1ccccc1Cl)c1cn(-c2cc(Cl)ccc2Cl)cn1` [I-203], the pest or weed control at 20 ppm turned out to be 100%. The same measure, in the same setting: as for `COc1ccc(Cl)c(S(=O)(=O)NC(=O)c2nc(C)n(-c3cc(Cl)cc(Cl)c3)c2Br)c1` [I-109], the figure is 100%; as for `CCOc1ccc(Cl)c(S(=O)(=O)NC(=O)c2cn(-c3c(F)cccc3F)c(C)n2)c1` [I-364], 90%. On the same count and under the same terms, as for `O=C(NS(=O)(=O)c1c(Cl)cccc1Cl)c1ncn(CC(F)(F)C(F)(F)F)c1Cl` [I-099], the figure is 70%; as for `COc1ccc(Br)c(S(=O)(=O)NC(=O)c2cn(-c3cc(F)cc(C(F)(F)F)c3)cn2)c1` [I-353], 100%.

For the compound `Cc1nc(C(=O)NS(=O)(=O)c2ccccc2)cn1-c1cc(Cl)cc(Cl)c1` [I-315], the pest or weed control at 20 ppm came out at 100%. In the case of `CC(C)CCn1cnc(C(=O)NS(=O)(=O)c2ccccc2)c1Cl` [I-044], the pest or weed control at 20 ppm came to 100%. Same read-out and setting: as for `COc1ccc(Cl)c(S(=O)(=O)NC(=O)c2cn(-c3ccc(Cl)cc3Cl)cn2)c1` [I-216], the figure is 90%. `O=C(NS(=O)(=O)c1ccccc1C(F)(F)F)c1cn(-c2cc(Cl)cc(C(F)(F)F)c2)cn1` [I-295]: the pest or weed control at 20 ppm was determined as 90%.

As for `O=C(NS(=O)(=O)c1cc(Cl)ccc1Cl)c1cn(Cc2ccc(Cl)cc2)cn1` [I-154], the pest or weed control at 20 ppm turned out to be 90%. On the same count and under the same terms, as for `COc1ccc(Cl)c(S(=O)(=O)NC(=O)c2nc(C)n(-c3cc(Cl)cc(Cl)c3)c2F)c1` [I-413], the figure is 100%; as for `O=C(NS(=O)(=O)c1ccccc1Cl)c1ncn(CC(F)(F)C(F)(F)F)c1Cl` [I-080], 90%. Take `CC(CC(F)(F)F)n1cnc(C(=O)NS(=O)(=O)c2ccccc2C(F)(F)F)c1Cl` (stereo not drawn) [I-102]: the pest or weed control at 20 ppm came to 100%. Consider `Cc1ccc(S(=O)(=O)NC(=O)c2ncn(CC(F)(F)F)c2Cl)cc1` [I-023], for which the pest or weed control at 20 ppm is 90%. Regarding `O=C(NS(=O)(=O)c1ccccc1Cl)c1cn(-c2cc(Br)cc(C(F)(F)F)c2)cn1` [I-277], the pest or weed control at 20 ppm turned out to be 70%. As to `CCSc1cccc(Cl)c1S(=O)(=O)NC(=O)c1cn(-c2cc(Cl)cc(Cl)c2)c(C)n1` [I-375], the pest or weed control at 20 ppm came to 100%. On to `Cc1nc(C(=O)NS(=O)(=O)c2c(F)cccc2Cl)cn1-c1cc(Cl)cc(Cl)c1` [I-378], for which the pest or weed control at 20 ppm turned out to be 100%.

Take `O=C(NS(=O)(=O)c1ccccc1)c1cn(-c2cc(Cl)ccc2Cl)cn1` [I-195]: the pest or weed control at 20 ppm worked out at 100%. The same measure, in the same setting: as for `O=C(NS(=O)(=O)c1cccc(Cl)c1)c1ncn(CCOC(F)(F)F)c1Cl` [I-056], the figure is 90%.

For `COc1ccccc1S(=O)(=O)NC(=O)c1ncn(C2CC2C(F)(F)F)c1Cl` (stereo not drawn) [I-064], the pest or weed control at 20 ppm was 100%. As to `CC(C)Oc1ccc(Cl)c(S(=O)(=O)NC(=O)c2cn(-c3c(F)cccc3F)cn2)c1` [I-357], the pest or weed control at 4 ppm was 90%. With `O=C(NS(=O)(=O)c1ccccc1Cl)c1cn(-c2ccccc2Cl)cn1` [I-183], the pest or weed control at 20 ppm came out at 90%. As for `COc1ccc(Cl)c(S(=O)(=O)NC(=O)c2cn(-c3ccc(C)cc3)cn2)c1` [I-213], the pest or weed control at 20 ppm was 90%. The same measure, in the same setting: as for `O=C(NS(=O)(=O)c1ccccc1Cl)c1nc(Br)n(CCC(F)(F)F)c1Cl` [I-440], the figure is 100%; as for `O=C(NS(=O)(=O)c1ccc(Cl)cc1)c1cn(-c2ccc(Cl)cc2Cl)cn1` [I-201], 80%; as for `COc1ccc(Br)c(S(=O)(=O)NC(=O)c2cn(-c3cc(F)cc(Cl)c3)c(C)n2)c1` [I-370], 70%. As for `O=C(NS(=O)(=O)c1c(Cl)cccc1Cl)c1cn(-c2ccccc2Cl)cn1` [I-184], the pest or weed control at 20 ppm turned out to be 100%. Consider `CCc1nc(C(=O)NS(=O)(=O)c2cc(OC)ccc2Cl)cn1-c1cc(Cl)cc(Cl)c1` [I-402], for which the pest or weed control at 20 ppm worked out at 90%. For `COc1cccc(S(=O)(=O)NC(=O)c2ncn(-c3cccc(C(F)(F)F)c3)c2Cl)c1` [I-436], the pest or weed control at 20 ppm worked out at 100%. Turning to `COc1ccc(F)c(S(=O)(=O)NC(=O)c2cn(-c3cc(Cl)cc(Cl)c3)c(C)n2)c1` [I-367], the pest or weed control at 20 ppm worked out at 100%. Same read-out and setting: as for `Cc1ccc(C)c(S(=O)(=O)NC(=O)c2cn(-c3cc(F)cc(C(F)(F)F)c3)cn2)c1` [I-355], the figure is 100%. In the case of `Cc1nc(C(=O)NS(=O)(=O)c2c(F)cccc2NC2CC2)cn1-c1cc(F)cc(F)c1` [I-389], the pest or weed control at 20 ppm is 100%. Turning to `COc1ccc(Cl)c(S(=O)(=O)NC(=O)c2ncn(CC(F)(F)C(F)(F)F)c2Cl)c1` [I-098], the pest or weed control at 20 ppm came out at 90%. As to `CCOc1ccc(Cl)c(S(=O)(=O)NC(=O)c2nc(Cl)n(C3CC3C(F)(F)F)c2Cl)c1` (stereo not drawn) [I-459], the pest or weed control at 20 ppm worked out at 100%. `O=C(NS(=O)(=O)c1ccccc1Cl)c1ncn(-c2ccc(C(F)(F)F)cc2)c1Cl` [I-423]: the pest or weed control at 20 ppm turned out to be 100%. As for `CC(CC(F)(F)F)n1cnc(C(=O)NS(=O)(=O)c2ccccc2Cl)c1Cl` (stereo not drawn) [I-071], the pest or weed control at 20 ppm is 100%. Take `O=C(NS(=O)(=O)c1cccc(Cl)c1)c1ncn(CC(F)(F)C(F)(F)F)c1Cl` [I-079]: the pest or weed control at 20 ppm was 100%.

Take `COc1ccc(Cl)c(S(=O)(=O)NC(=O)c2cc(-c3cccc(C(F)(F)F)c3)n(C)n2)c1` [I-138]: the pest or weed control at 20 ppm worked out at 100%.

As for `O=C(NS(=O)(=O)c1ccccc1Cl)c1cc(-c2cc(Cl)cc(Cl)c2)n(CC(F)(F)F)n1` [I-447], the pest or weed control at 20 ppm was 90%. On the same count and under the same terms, as for `Cn1nc(C(=O)NS(=O)(=O)c2cc(Cl)ccc2Cl)cc1-c1ccccc1` [I-133], the figure is 70%; as for `O=C(NS(=O)(=O)c1ccccc1)c1cn(-c2cc(F)cc(C(F)(F)F)c2)cn1` [I-301], 100%; as for `Cc1cc(-n2cnc(C(=O)NS(=O)(=O)c3ccccc3Cl)c2)cc(C(F)(F)F)c1` [I-290], 100%. The same measure, in the same setting: as for `O=C(NS(=O)(=O)c1ccccc1Cl)c1cn(-c2cc(C(F)(F)F)cc(C(F)(F)F)c2)cn1` [I-285], the figure is 90%. As for `O=C(NS(=O)(=O)c1cccs1)c1ncn(CCC(F)(F)F)c1Cl` [I-097], the pest or weed control at 20 ppm was 90%. Take `Cc1nc(C(=O)NS(=O)(=O)c2c(F)cccc2Cl)cn1-c1cc(F)cc(C(F)(F)F)c1` [I-400]: the pest or weed control at 20 ppm was found to be 90%.

`CC(C)Oc1ccc(Cl)c(S(=O)(=O)NC(=O)c2cn(-c3cc(Cl)cc(C(F)(F)F)c3)cn2)c1` [I-344]: the pest or weed control at 20 ppm is 90%.

Turning to `CC(CC(F)(F)F)n1cnc(C(=O)NS(=O)(=O)c2c(Cl)cccc2Cl)c1Cl` (stereo not drawn) [I-101], the pest or weed control at 20 ppm amounted to 100%. Regarding `O=C(NS(=O)(=O)c1cc(Cl)ccc1Cl)c1cn(-c2cc(Cl)cc(Cl)c2)cn1` [I-230], the pest or weed control at 20 ppm was determined as 100%.
